The values that follow come from patent US20230131025A1, “QUINOLYL PHOSPHINE OXIDE COMPOUND, AND COMPOSITION AND APPLICATION THEREOF” (Betta Pharmaceuticals Co., Ltd., priority 2020, published 2023).

In one test the target is EGFR WT (Homo sapiens, UniProt P00533). As to the kind of experiment: Kinase inhibition assay (mobility shift). The test is classed as biochemical. As to the method: (§1) Experiment 1 Kinase Inhibition Assay Mobility shift assays were performed to determine inhibitory activity of compounds against EGFR^Δ19del/T790M/C797S, EGFR WT and IGF1R kinases. The enzymatic reaction scheme is as follows:
(§2) 1. Preparing 1*Kinase Buffer as follows:
(§3) 2. Preparing compound concentration gradient: the initial concentration of the compound tested in the assay was 3,000 nM or 100 nM, which is then diluted to be 100-fold final concentration in 100% DMSO in a 384-source plate. Compounds in 10 concentrations were diluted in a 3-fold gradient with Precision. 250 nL of compound in 100-fold final concentration was transferred to OptiPlate-384F plate by using a dispenser named Echo 550.
(§4) 3. Preparing kinase solution at 2.5-fold the final concentration with 1×kinase buffer.
(§5) 4. Adding 10 μL of kinase solution at 2.5-fold the final concentration to compound wells and positive control wells respectively; and adding 10 μL of 1×kinase buffer to negative control wells.
(§6) 5. Centrifuging the wells at 1,000 rpm for 30 seconds, mixing the reaction plate well by shaking and incubating it at room temperature for 10 minutes.
(§7) 6. Preparing a mixed solution of ATP and kinase substrate at 5-fold/3-fold the final concentration with 1×Kinase buffer, respectively.
(§8) 7. Initiating the reaction by adding 15 μL of the mixed solution of ATP and kinase substrate at 5-fold/3-fold the final concentration.
(§9) 8. Centrifuging the 384-well plate at 1,000 rpm for 30 seconds, mixing the reaction plate well by shaking and incubating it at room temperature for a corresponding time.
(§10) 9. Adding 30 μL of assay stop solution to stop the kinase reaction, and centrifuging the plate at 1,000 rpm for 30 seconds and mixing it well by shaking.
(§11) 10. Reading the conversion rate with Caliper EZ Reader.
(§12) [formula] • wherein, “Conversion % sample” is the conversion rate reading of the sample;
(§13) “Conversion %_min” is the mean value of the negative control wells, representing the conversion rate readings of the well without enzymatic activity; “Conversion %_max” is the mean value of the positive control wells, representing the conversion rate readings of the wells without compound inhibition. • Dose-response curve is plotted with the logarithmic concentration on the X-axis and percent inhibition on the Y-axis. The fitting of the dose-response curve is made with the module “log(inhibitor) vs. response—Variable slope” of the analysis software GraphPad Prism 5, so that the IC50 value of each compound on enzymatic activity is obtained. • The calculation formula is: Y=Bottom+(Top−Bottom)/(1+10^((Log IC50−X)*HillSlope)).

The target in another test is EGFR Δ19del/T790M/C797S (Homo sapiens, UniProt P00533, T790M/C797S, form not given). The test is described as follows: Kinase inhibition assay (mobility shift). The class given is biochemical. As to the method: as §1, §2, §3, §4, §5, §6, §7, §8, §9, §10, §11, §12, §13
In another test the target is IGF1R (Homo sapiens, UniProt P08069). The test is described as follows: Kinase inhibition assay (mobility shift). The class given is biochemical. As to the method: as §1, §2, §3, §4, §5, §6, §7, §8, §9, §10, §11, §12, §13
For test [1], the system named is human epidermal cancer cells A431 carrying EGFR WT. The test is described as follows: Cell proliferation experiment (CellTiter Glo, 72 hours). Particulars: Homo sapiens, A-431. The test is classed as cell-based. As to the method:
(§14) Experiment 2 Cell Proliferation Experiment
Adherent cells: human epidermal cancer cells A431 carrying EGFR WT.
(§15) RPMI 1640 with 10% FBS and 1% Penicillin-Streptomycin, or DMEM with 10% FBS and 1% Penicillin-Streptomycin.
(§16) a) Diluting compounds being tested (20 mM stock solutions), as an initial concentration, to 10 mM with 100% DMSO, followed by diluting compounds serially in a 3-fold gradient such that each compound is diluted into 12 concentrations (Cat #P-05525, Labcyte).
(§17) b) Diluting the above compound solutions for 100-fold with culture medium to prepare 10-fold working solution.
(§18) b) Seeding cells into 96-well cell culture plate at a density of 2000 or 3000 cells/well, with 135 μL/well.
(§19) a) Adding the compound prepared in step 2 to the cell plate at 15 μL per well, resulting in a final maximum concentration of 10000 nM or 1111 nM. The compounds is diluted serially in a 3-fold gradient such that each compound is diluted into 9 concentrations, wherein the final concentration of DMSO is 0.1%. Blank control wells are added with medium (0.1% DMSO).
(§20) b) Re-incubating the cells in an incubator for 72 hours. 5. Detection
(§21) a) Adding 50 μL of CTG reagent (CellTiter Glo kit, promega, Cat #G7573) to the 96-well cell culture plate.
(§22) b) Shaking the plate for 2 minutes and reacting at room temperature for 10 minutes.
(§23) c) Reading the luminescence signal value (Lum) using PerkinElmer reader.
(§24) The cell survival inhibition rate of each well was calculated. The data was analyzed by GraphPad Prism 6.0 software. The dose-response curve was obtained by fitting the data with a nonlinear regression equation. The IC50 of each compound was calculated as follows:
(§25) Cell survival inhibition rate (%)=(1−(Lumcompound tested−Lummedium control)/(Lumcell control−Lummedium control))×100%
(§26) Y=Min+(Max−Min)/(1+10^((Log IC50−X)*Slope));
(§27) X: logarithm of compound concentration. Y: cell survival inhibition rate.
A general note: ATP-based viability assays read luminescence as a measure of living cells.

Another test deals with Ba/F3-Δ19del/T790M/C797S (Homo sapiens, UniProt P00533, T790M/C797S, cells depend on it, form not given). The test is described as above. The test is classed as cell-based. The note with it: read-out: Ba/F3/EGFR Δ19del/T790M/C797S IC50. As to the method:
as §14
(§28) Suspension cells: Ba/F3 cells with stable overexpression of Δ19del/T790M/C797S mutant gene, named Ba/F3-Δ19del/T790M/C797S; Ba/F3 cells with overexpression of EGFR WT, named Ba/F3 EGFR WT.
as §15, §16, §17, §18, §19, §20, §21, §22, §23, §24, §25, §26, §27

The next test addresses Ba/F3 EGFR WT (Homo sapiens, UniProt P00533). The description is as above. The class given is cell-based. The note with it: read-out: BaF3 EGFR WT IC50. As to the method: as §14, §28, §15, §16, §17, §18, §19, §20, §21, §22, §23, §24, §25, §26, §27

Ba/F3 EGFR WT, sequence (P00533 whole entry, change not shown): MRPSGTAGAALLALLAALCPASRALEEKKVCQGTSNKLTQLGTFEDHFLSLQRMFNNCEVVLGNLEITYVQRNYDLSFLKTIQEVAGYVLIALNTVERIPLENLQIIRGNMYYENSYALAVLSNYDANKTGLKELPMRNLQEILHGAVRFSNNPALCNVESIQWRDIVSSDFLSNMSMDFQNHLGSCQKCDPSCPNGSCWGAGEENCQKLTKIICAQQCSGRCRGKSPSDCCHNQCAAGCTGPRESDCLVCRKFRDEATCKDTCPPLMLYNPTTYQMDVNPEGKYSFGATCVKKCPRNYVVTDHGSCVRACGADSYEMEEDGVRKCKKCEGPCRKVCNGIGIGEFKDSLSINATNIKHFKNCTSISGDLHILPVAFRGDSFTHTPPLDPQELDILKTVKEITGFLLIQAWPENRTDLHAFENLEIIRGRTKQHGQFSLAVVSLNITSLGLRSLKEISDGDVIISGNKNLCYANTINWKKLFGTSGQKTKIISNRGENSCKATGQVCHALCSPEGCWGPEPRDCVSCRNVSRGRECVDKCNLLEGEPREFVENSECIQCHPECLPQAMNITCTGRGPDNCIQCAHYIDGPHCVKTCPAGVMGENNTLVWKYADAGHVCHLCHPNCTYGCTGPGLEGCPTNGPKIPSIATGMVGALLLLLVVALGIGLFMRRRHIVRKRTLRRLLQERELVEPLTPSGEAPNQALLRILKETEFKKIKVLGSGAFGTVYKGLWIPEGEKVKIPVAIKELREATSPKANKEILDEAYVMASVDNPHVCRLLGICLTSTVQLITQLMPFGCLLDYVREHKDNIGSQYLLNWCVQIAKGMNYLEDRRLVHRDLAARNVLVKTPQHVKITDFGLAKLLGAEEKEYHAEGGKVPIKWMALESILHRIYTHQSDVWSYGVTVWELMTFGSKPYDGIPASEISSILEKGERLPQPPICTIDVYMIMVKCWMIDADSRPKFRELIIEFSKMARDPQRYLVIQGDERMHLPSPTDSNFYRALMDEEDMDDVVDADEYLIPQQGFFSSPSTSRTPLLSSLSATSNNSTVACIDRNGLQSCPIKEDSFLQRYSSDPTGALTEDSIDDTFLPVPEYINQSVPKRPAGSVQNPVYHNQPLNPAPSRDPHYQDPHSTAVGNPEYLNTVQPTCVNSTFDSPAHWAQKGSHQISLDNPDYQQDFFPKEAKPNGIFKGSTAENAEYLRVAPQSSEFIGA
EGFR WT, sequence (P00533 25-1210): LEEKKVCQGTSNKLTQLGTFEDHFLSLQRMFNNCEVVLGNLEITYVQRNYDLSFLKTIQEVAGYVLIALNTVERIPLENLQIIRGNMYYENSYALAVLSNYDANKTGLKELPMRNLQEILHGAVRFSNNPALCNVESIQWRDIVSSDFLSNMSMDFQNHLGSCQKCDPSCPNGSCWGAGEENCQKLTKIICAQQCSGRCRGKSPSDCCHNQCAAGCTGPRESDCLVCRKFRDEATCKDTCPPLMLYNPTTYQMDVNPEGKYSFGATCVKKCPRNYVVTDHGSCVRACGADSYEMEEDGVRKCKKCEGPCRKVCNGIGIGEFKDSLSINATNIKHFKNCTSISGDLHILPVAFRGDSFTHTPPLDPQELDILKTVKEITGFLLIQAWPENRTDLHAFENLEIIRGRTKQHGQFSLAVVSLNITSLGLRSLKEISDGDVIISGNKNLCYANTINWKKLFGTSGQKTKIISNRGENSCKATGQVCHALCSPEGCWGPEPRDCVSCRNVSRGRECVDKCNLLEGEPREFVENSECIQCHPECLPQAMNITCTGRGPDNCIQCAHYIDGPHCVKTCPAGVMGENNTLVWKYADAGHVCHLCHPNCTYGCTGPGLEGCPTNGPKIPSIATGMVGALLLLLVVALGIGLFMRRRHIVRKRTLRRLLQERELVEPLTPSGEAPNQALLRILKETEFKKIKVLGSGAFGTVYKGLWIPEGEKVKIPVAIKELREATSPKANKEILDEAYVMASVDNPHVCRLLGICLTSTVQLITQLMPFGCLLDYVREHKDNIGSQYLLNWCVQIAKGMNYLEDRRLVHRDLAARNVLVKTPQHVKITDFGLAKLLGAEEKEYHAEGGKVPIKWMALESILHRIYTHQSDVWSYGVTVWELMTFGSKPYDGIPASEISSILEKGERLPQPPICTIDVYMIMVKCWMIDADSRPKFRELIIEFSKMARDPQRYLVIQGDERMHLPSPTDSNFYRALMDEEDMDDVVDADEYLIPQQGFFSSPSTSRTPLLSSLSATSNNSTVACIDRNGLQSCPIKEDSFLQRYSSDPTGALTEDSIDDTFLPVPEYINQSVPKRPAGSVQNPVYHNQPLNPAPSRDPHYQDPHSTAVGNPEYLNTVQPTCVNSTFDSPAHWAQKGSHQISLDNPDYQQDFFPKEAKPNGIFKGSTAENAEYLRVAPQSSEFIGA
IGF1R, sequence (P08069 31-1367, species assumed): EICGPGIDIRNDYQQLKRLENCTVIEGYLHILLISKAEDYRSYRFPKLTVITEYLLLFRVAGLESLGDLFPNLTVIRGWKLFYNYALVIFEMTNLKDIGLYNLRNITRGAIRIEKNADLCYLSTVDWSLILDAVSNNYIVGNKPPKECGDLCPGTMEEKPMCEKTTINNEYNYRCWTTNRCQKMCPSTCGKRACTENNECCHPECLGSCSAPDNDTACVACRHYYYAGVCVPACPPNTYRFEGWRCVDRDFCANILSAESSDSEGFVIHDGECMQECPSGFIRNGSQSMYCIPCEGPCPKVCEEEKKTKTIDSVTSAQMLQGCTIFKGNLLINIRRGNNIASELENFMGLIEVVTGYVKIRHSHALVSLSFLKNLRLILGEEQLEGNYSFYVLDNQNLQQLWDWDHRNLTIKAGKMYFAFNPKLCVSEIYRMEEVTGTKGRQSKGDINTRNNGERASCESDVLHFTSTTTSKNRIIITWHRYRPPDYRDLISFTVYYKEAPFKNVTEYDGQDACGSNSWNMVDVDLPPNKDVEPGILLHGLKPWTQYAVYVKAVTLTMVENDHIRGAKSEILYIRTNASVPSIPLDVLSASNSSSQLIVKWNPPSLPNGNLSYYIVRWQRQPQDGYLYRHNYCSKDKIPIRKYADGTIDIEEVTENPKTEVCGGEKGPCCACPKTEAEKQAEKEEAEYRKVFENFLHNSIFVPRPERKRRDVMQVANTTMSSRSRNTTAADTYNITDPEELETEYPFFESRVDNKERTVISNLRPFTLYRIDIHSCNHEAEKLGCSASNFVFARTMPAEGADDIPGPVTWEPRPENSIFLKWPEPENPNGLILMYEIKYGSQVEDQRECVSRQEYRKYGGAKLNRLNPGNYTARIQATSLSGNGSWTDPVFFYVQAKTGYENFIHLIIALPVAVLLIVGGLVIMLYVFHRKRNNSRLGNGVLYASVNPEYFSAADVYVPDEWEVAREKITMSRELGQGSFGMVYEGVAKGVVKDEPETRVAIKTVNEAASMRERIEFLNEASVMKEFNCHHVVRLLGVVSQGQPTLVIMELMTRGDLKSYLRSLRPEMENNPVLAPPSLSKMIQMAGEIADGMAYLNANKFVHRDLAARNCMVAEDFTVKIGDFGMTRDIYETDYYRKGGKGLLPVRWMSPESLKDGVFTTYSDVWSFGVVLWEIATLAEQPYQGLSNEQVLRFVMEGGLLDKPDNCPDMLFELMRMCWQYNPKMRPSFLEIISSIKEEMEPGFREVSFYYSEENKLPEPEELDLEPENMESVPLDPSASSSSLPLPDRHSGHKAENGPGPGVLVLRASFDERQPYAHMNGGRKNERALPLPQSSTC
Ba/F3-Δ19del/T790M/C797S, sequence (P00533 with tags, fused parts or gaps DEL746-750/T790M/C797S, form open): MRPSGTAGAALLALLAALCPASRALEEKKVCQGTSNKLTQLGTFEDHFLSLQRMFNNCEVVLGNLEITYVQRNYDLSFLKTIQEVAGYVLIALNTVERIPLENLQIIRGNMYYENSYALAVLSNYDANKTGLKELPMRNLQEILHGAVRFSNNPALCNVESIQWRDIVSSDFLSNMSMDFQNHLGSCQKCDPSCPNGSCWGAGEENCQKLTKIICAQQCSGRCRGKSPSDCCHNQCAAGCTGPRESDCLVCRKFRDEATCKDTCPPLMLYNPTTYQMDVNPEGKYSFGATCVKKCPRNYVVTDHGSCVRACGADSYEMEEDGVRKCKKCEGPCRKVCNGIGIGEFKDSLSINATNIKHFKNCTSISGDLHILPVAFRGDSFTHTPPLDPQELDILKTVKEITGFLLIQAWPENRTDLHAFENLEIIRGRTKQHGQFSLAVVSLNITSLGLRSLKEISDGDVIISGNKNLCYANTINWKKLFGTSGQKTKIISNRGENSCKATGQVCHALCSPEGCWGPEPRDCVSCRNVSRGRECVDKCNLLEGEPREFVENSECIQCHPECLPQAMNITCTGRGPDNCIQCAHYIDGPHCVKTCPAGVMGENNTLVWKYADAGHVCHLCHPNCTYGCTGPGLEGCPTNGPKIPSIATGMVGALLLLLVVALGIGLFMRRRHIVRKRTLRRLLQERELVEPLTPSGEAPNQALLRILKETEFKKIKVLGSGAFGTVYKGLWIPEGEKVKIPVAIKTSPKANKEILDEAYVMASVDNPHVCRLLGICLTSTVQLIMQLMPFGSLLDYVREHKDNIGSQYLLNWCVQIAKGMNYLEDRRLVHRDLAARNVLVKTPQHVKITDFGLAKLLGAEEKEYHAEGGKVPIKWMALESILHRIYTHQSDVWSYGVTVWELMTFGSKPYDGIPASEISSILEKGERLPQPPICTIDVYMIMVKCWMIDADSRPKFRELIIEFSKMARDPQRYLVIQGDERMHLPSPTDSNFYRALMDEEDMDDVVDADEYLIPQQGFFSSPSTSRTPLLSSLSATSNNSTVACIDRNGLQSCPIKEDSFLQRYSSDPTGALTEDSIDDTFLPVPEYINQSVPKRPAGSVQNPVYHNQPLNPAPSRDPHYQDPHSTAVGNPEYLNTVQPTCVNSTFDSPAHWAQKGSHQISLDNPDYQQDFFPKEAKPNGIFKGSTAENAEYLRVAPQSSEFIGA

What is called IC50 is the concentration at which inhibition is half-maximal. On to `COc1cc(N2CCOCC2)c(C#N)cc1Nc1ncc(Br)c(Nc2ccc3nc(C4CC4)ccc3c2P(C)(C)=O)n1` [Compound J-002, 5-((5-Bromo-4-((2-cyclopropyl-5-(dimethylphosphineoxide)quinolin-6-yl)amino)pyrimidin-2-yl)amino)-4-methoxy-2-morpholinebenzonitrile], for which the IC50 on EGFR WT came out at 62.8 nM; at EGFR Δ19del/T790M/C797S it was 0.4 nM; on IGF1R it was 720 nM.
For `COc1cc(Nc2ncc(Br)c(Nc3ccc4nc(C5CC5)ccc4c3P(C)(C)=O)n2)c(C2CC2)cc1N1CCOCC1` [Compound J-004, (6-((5-Bromo-2-((2-cyclopropyl-5-methoxy-4-morpholinylphenyl)amino)pyrimidin-4-yl)amino)-2-cyclopropylquinoline-5-yl)dimethylphosphine oxide], in that order: 283 nM, 0.7 nM and 380 nM.
For `COc1cc(Nc2ncc(Br)c(Nc3ccc4nc(C5CC5)ccc4c3P(C)(C)=O)n2)cc(C)c1N1CCOCC1` [Compound J-006, (6-((5-Bromo-2-((3-methoxy-5-methyl-4-morpholinylphenyl)amino)pyrimidin-4-yl)amino)-2-cyclopropylquinoline-5-yl)dimethylphosphine oxide], in that order: 714 nM, 3.5 nM and 437 nM.
For `CCc1cc(Nc2ncc(Br)c(Nc3ccc4nc(-c5cnn(C)c5)ccc4c3P(C)(C)=O)n2)c(OC)cc1N1CCC(N2CCN(C)CC2)CC1` [Compound J-017, (6-((5-Bromo-2-((5-ethyl-2-methoxy-4-(4-(4-methylpiperazin-1-yl)piperidin-1-yl)phenyl)amino)pyrimidin-4-yl)amino)-2(1-methyl-1H-pyrazol-4-yl)quinolin-5-yl)dimethylphosphine oxide], in that order: 18.4 nM, 0.3 nM and 246 nM.
As for `COc1cc(N2CCN(C3CCCC3)CC2)c(C)cc1Nc1ncc(Br)c(Nc2ccc3nc(C4CC4)ccc3c2P(C)(C)=O)n1` [Compound J-037, (6-((5-Bromo-2-((4-(4-cyclopentylpiperazin-1-yl)-2-methoxy-5-methylphenyl)amino)pyrimidin-4-yl)amino)-2-cyclopropylquinolin-5-yl)dimethylphosphine oxide], the IC50 came to 138 nM on EGFR WT and 210 nM on IGF1R.
Molecule `COc1cc(N2CCC(N3CCOCC3)CC2)c(-c2cnn(C)c2)cc1Nc1ncc(Br)c(Nc2ccc3nc(C4CC4)ccc3c2P(C)(C)=O)n1` [Compound J-059, (6-((5-Bromo-2-((2-methoxy-5-(1-methyl-1H-pyrazol-4-yl)-4-(4-morpholinopiperidine-1-yl)phenyl)amino)pyrimidin-4-yl)amino)-2-cyclopropylquinolin-5-yl)dimethylphosphine oxide] displayed an IC50 in test [1] of 264 nM. Further, the GI50 at Ba/F3-Δ19del/T790M/C797S was found to be 0.4 nM; on Ba/F3 EGFR WT, 10.6 nM.
The matching figures for `COc1cc(N2CCN(c3ccncn3)CC2)c(-c2cnn(C)c2)cc1Nc1ncc(Br)c(Nc2ccc3nc(C4CC4)ccc3c2P(C)(C)=O)n1` [Compound J-060, (6-((5-Bromo-2-((2-methoxy-5-(1-methyl-1H-pyrazol-4-yl)-4-(4-(pyrimidin-4-yl)piperazin-1-yl)phenyl)amino)pyrimidin-4-yl)amino)-2-cyclopropylquinolin-5-yl)dimethylphosphine oxide]: 366 nM, 2.3 nM and 54 nM.
For `COc1cc(N(C)CCN(C)C)c(-c2cnn(C)c2)cc1Nc1ncc(Br)c(Nc2ccc3nc(C4CC4)ccc3c2P(C)(C)=O)n1` [Compound J-062, (6-((5-Bromo-2-((4-((2-(dimethylamino)ethyl)(methyl)amino)-2-methoxy-5-(1-methyl-1H-pyrazol-4-yl)phenyl)amino)pyrimidin-4-yl)amino)-2-cyclopropylquinolin-5-yl)dimethylphosphine oxide], in that order: 157 nM, 1.4 nM and 46.2 nM.
As to `COc1cc(N2CCC(N3CCN(C)CC3)CC2)c(-c2ccn(C)c2)cc1Nc1ncc(Br)c(Nc2ccc3nc(C4CC4)ccc3c2P(C)(C)=O)n1` [Compound J-064, (6-((5-Bromo-2-((2-methoxy-5-(1-methyl-1H-pyrrol-3-yl)-4-(4-(4-methylpiperazine-1-yl)piperidin-1-yl)phenyl)amino)pyrimidin-4-yl)amino)-2-cyclopropylquinolin-5-yl)dimethylphosphine oxide], in test [1], the IC50 is 128 nM. The GI50 on Ba/F3-Δ19del/T790M/C797S was found to be 1.1 nM; at Ba/F3 EGFR WT it was 14.6 nM.
For `COc1cc(N2CCC(N3CCN(C)CC3)CC2)c(-c2cnn(C)c2)cc1Nc1ncc(F)c(Nc2ccc3nc(C4CC4)ccc3c2P(C)(C)=O)n1` [Compound J-065], in that order: 425 nM, 13 nM and 73 nM.
For `COc1cc(N2CCN(C3CCN(C)CC3)CC2)c(-c2cnn(C)c2)cc1Nc1ncc(Br)c(Nc2ccc3nc(C4CC4)ccc3c2P(C)(C)=O)n1` [Compound J-066, (6-((5-Bromo-2-((2-methoxy-5-(1-methyl-1H-pyrazol-4-yl)-4-(4-(1-methylpiperidine-4-yl)piperazin-1-yl)phenyl)amino)pyrimidin-4-yl)amino)-2-cyclopropylquinolin-5-yl)dimethylphosphine oxide], in that order: 259 nM, 4.4 nM and 77.9 nM.
For `COc1cc(N2CCC(N3CCN(C)CC3)CC2)c(-c2cnn(C(F)F)c2)cc1Nc1ncc(Br)c(Nc2ccc3nc(C4CC4)ccc3c2P(C)(C)=O)n1` [Compound J-067, (6-((5-bromo-2-((5-(1-(difluoromethyl)-1H-pyrazol-4-yl)-2-methoxy-4-(4-(4-methylpiperazin-1-yl)piperidin-1-yl)phenyl)amino)pyrimidin-4-yl)amino)-2-cyclopropylquinolin-5-yl)dimethylphosphine oxide], in that order: 632 nM, 2.4 nM and 37.3 nM.
Consider `COc1cc(N2CCC(N3CCN(C)CC3)CC2)c(-c2cnn(C)c2)cc1Nc1ncc(Br)c(Nc2ccc3nc(C4CC4)ccc3c2P(C)(C)=O)n1` [Compound J-068, (6-((5-Bromo-2-((2-methoxy-5-(1-methyl-1H-pyrazol-4-yl)-4-(4-(4-methylpiperazine-1-yl)piperidin-1-yl)phenyl)amino)pyrimidin-4-yl)amino)-2-cyclopropylquinolin-5-yl)dimethylphosphine oxide], for which the IC50 in test [1] amounted to 201 nM. Further, the GI50 on Ba/F3-Δ19del/T790M/C797S came to 1 nM; on Ba/F3 EGFR WT, 33.2 nM.
